The target of this experiment is T1, β-catenin (Homo sapiens, UniProt P35222).
T1 sequence (P35222 1-781): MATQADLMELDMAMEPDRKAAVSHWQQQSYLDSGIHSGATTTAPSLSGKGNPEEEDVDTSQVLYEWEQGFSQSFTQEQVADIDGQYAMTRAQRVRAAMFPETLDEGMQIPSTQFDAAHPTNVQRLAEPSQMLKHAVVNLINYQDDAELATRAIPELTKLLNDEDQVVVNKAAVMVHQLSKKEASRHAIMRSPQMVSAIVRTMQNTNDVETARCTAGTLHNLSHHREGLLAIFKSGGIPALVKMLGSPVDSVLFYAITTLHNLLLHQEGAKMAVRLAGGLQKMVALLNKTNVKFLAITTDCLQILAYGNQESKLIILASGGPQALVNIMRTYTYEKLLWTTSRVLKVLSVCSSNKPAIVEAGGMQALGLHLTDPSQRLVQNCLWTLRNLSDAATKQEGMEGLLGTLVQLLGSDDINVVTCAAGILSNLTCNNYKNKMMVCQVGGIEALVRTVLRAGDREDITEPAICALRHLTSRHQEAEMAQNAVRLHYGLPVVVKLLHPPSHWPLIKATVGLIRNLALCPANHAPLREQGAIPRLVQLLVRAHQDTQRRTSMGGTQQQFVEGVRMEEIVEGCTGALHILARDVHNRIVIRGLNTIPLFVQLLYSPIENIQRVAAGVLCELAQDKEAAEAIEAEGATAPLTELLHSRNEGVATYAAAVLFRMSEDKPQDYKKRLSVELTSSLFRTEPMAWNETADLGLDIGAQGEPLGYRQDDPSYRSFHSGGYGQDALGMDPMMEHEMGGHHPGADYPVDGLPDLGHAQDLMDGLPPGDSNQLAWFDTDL
Briefly: KD50 measurement using competitive fluorescence polarization (FP) with labelled TCF4. The settings on record: fluorescence polarization, β-catenin; for Kd: read-out: β-Cat FP KD. Type of experiment: binding. A digest of the protocol: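 Tracer: labelled TCF4, 5 nM; protein 100 nM; RT incubation. Competitor dilution series 10 nM–30 uM. FP read ex 470 / em 520 nm. n = 3.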
For orientation: In fluorescence polarisation assays a small probe gives low polarisation when free and higher when bound to something large.

SMILES strings stand for the structures. Where a SMILES comes first, the peptide text is derived from it.

Take `CC[C@H](C)[C@@H]1NC(=O)[C@@H](NC(=O)[C@H](CCC(N)=O)NC(=O)[C@H](C)N(C)C(=O)[C@H](Cc2c[nH]c3ccccc23)NC(=O)CCNC(C)=O)CCCCNC(=O)CC[C@@H](C(=O)N[C@@H](Cc2c[nH]cn2)C(=O)N[C@H](C(=O)N[C@@H](CCC(N)=O)C(=O)N[C@@H](CCCNC(=N)N)C(=O)N[C@H](C(=O)N[C@@H](Cc2c[nH]c3ccccc23)C(=O)NCC(N)=O)C(C)C)C2CCCCC2)NC(=O)[C@H](CC(=O)O)NC(=O)[C@H](CC(C)C)NC1=O` [compound 419] (HELM PEPTIDE1{[ac].[bAla].W.[meA].Q.K.I.L.D.E.H.[O=C([C@@H](N[*:1])C1CCCCC1)[*:2]].Q.R.V.W.G.[am]}$PEPTIDE1,PEPTIDE1,6:R3-10:R3$$$V2.0): the “β-Cat FP Hill slope” value is listed as 0.7 and the Kd (in general, the concentration at which binding is half-saturated) is < 400 nM.

Take `CC(C)C[C@@H]1NC(=O)[C@H](C2CCCCC2)NC(=O)[C@@H](NC(=O)[C@H](CCC(N)=O)NC(=O)[C@H](C)N(C)C(=O)[C@@H](N)Cc2c[nH]c3ccccc23)CCCCNC(=O)CC[C@@H](C(=O)N[C@@H](Cc2c[nH]cn2)C(=O)N[C@H](C(=O)N[C@@H](CCC(N)=O)C(=O)N[C@@H](CCCNC(=N)N)C(=O)N[C@H](C(=O)N[C@@H](Cc2c[nH]c3ccccc23)C(=O)NCC(N)=O)C(C)C)C(C)C)NC(=O)[C@H](CC(=O)O)NC1=O` [compound 420] (HELM PEPTIDE1{W.[meA].Q.K.[O=C([C@@H](N[*:1])C1CCCCC1)[*:2]].L.D.E.H.V.Q.R.V.W.G.[am]}$PEPTIDE1,PEPTIDE1,4:R3-8:R3$$$V2.0): the “β-Cat FP Hill slope” value stood at 0.7 and the Kd lay within 400 to 1000 nM.

Turning to `CC(=O)N[C@@H](Cc1c[nH]c2ccccc12)C(=O)N(C)[C@@H](C)C(=O)N[C@@H](CCC(N)=O)C(=O)N[C@H]1CCCCNC(=O)CC[C@@H](C(=O)N[C@@H](Cc2c[nH]cn2)C(=O)N[C@H](C(=O)N[C@@H](CCC(N)=O)C(=O)N[C@@H](CCCNC(=N)N)C(=O)N[C@H](C(=O)N[C@@H](Cc2c[nH]c3ccccc23)C(=O)NCC(N)=O)C(C)C)C(C)C)NC(=O)[C@H](CC(=O)O)NC(=O)[C@H](CC(C)C)NC(=O)[C@H](C2CCCCC2)NC1=O` [compound 421] (HELM PEPTIDE1{[ac].W.[meA].Q.K.[O=C([C@@H](N[*:1])C1CCCCC1)[*:2]].L.D.E.H.V.Q.R.V.W.G.[am]}$PEPTIDE1,PEPTIDE1,5:R3-9:R3$$$V2.0), the “β-Cat FP Hill slope” value was 0.7 and the equilibrium dissociation constant (Kd) was < 400 nM.

In the case of `CCCCCCCCC(=O)N[C@@H](Cc1c[nH]c2ccccc12)C(=O)N(C)[C@@H](C)C(=O)N[C@@H](CCC(N)=O)C(=O)N[C@H]1CCCCNC(=O)CC[C@@H](C(=O)N[C@@H](Cc2c[nH]cn2)C(=O)N[C@H](C(=O)N[C@@H](CCC(N)=O)C(=O)N[C@@H](CCCNC(=N)N)C(=O)N[C@H](C(=O)N[C@@H](Cc2c[nH]c3ccccc23)C(=O)NCC(N)=O)C(C)C)C(C)C)NC(=O)[C@H](CC(=O)O)NC(=O)[C@H](CC(C)C)NC(=O)[C@H](C2CCCCC2)NC1=O` [compound 422] (HELM PEPTIDE1{[CCCCCCCCC(=O)[*:2]].W.[meA].Q.K.[O=C([C@@H](N[*:1])C1CCCCC1)[*:2]].L.D.E.H.V.Q.R.V.W.G.[am]}$PEPTIDE1,PEPTIDE1,5:R3-9:R3$$$V2.0), the Kd is 400 to 1000 nM.

In the case of `CC[C@H](C)[C@@H]1NC(=O)[C@@H](NC(=O)[C@H](CCC(N)=O)NC(=O)[C@H](C)N(C)C(=O)[C@@H](N)Cc2c[nH]c3ccccc23)CCCNC(=O)CC[C@@H](C(=O)N[C@@H](Cc2c[nH]cn2)C(=O)N[C@H](C(=O)N[C@@H](CCC(N)=O)C(=O)N[C@@H](CCCNC(=N)N)C(=O)N[C@H](C(=O)N[C@@H](Cc2c[nH]c3ccccc23)C(=O)NCC(N)=O)C(C)C)C2CCCCC2)NC(=O)[C@H](CC(=O)O)NC(=O)[C@H](CC(C)C)NC1=O` [compound 423] (HELM PEPTIDE1{W.[meA].Q.[Orn].I.L.D.E.H.[O=C([C@@H](N[*:1])C1CCCCC1)[*:2]].Q.R.V.W.G.[am]}$PEPTIDE1,PEPTIDE1,4:R3-8:R3$$$V2.0), the “β-Cat FP Hill slope” value is listed as 0.7 and the Kd was in the range of 400 to 1000 nM.

As for `CC[C@H](C)[C@@H]1NC(=O)[C@@H](NC(=O)[C@H](CCC(N)=O)NC(=O)[C@H](C)N(C)C(=O)[C@H](Cc2c[nH]c3ccccc23)NC(C)=O)CCCNC(=O)CC[C@@H](C(=O)N[C@@H](Cc2c[nH]cn2)C(=O)N[C@H](C(=O)N[C@@H](CCC(N)=O)C(=O)N[C@@H](CCCNC(=N)N)C(=O)N[C@H](C(=O)N[C@@H](Cc2c[nH]c3ccccc23)C(=O)NCC(N)=O)C(C)C)C2CCCCC2)NC(=O)[C@H](CC(=O)O)NC(=O)[C@H](CC(C)C)NC1=O` [compound 424] (HELM PEPTIDE1{[ac].W.[meA].Q.[Orn].I.L.D.E.H.[O=C([C@@H](N[*:1])C1CCCCC1)[*:2]].Q.R.V.W.G.[am]}$PEPTIDE1,PEPTIDE1,5:R3-9:R3$$$V2.0), the “β-Cat FP Hill slope” value came to 0.7 and the Kd is < 400 nM.

As for `CCCCCCCCC(=O)N[C@@H](Cc1c[nH]c2ccccc12)C(=O)N(C)[C@@H](C)C(=O)N[C@@H](CCC(N)=O)C(=O)N[C@H]1CCCNC(=O)CC[C@@H](C(=O)N[C@@H](Cc2c[nH]cn2)C(=O)N[C@H](C(=O)N[C@@H](CCC(N)=O)C(=O)N[C@@H](CCCNC(=N)N)C(=O)N[C@H](C(=O)N[C@@H](Cc2c[nH]c3ccccc23)C(=O)NCC(N)=O)C(C)C)C2CCCCC2)NC(=O)[C@H](CC(=O)O)NC(=O)[C@H](CC(C)C)NC(=O)[C@H]([C@@H](C)CC)NC1=O` [compound 425] (HELM PEPTIDE1{[CCCCCCCCC(=O)[*:2]].W.[meA].Q.[Orn].I.L.D.E.H.[O=C([C@@H](N[*:1])C1CCCCC1)[*:2]].Q.R.V.W.G.[am]}$PEPTIDE1,PEPTIDE1,5:R3-9:R3$$$V2.0), the Kd was < 400 nM.

Take `CC[C@H](C)[C@@H]1NC(=O)[C@@H](NC(=O)[C@H](CCC(N)=O)NC(=O)[C@H](C)N(C)C(=O)[C@H](Cc2c[nH]c3ccccc23)NC(C)=O)CCC(=O)NCCCC[C@@H](C(=O)N[C@@H](Cc2c[nH]cn2)C(=O)N[C@H](C(=O)N[C@@H](CCC(N)=O)C(=O)N[C@@H](CCCNC(=N)N)C(=O)N[C@H](C(=O)N[C@@H](Cc2c[nH]c3ccccc23)C(=O)NCC(N)=O)C(C)C)C2CCCCC2)NC(=O)[C@H](CC(=O)O)NC(=O)[C@H](CC(C)C)NC1=O` [compound 426] (HELM PEPTIDE1{[ac].W.[meA].Q.E.I.L.D.K.H.[O=C([C@@H](N[*:1])C1CCCCC1)[*:2]].Q.R.V.W.G.[am]}$PEPTIDE1,PEPTIDE1,5:R3-9:R3$$$V2.0): the “β-Cat FP Hill slope” value stood at 0.91 and the Kd was < 400 nM.

In the case of `CCCCCCCCC(=O)N[C@@H](Cc1c[nH]c2ccccc12)C(=O)N(C)[C@@H](C)C(=O)N[C@@H](CCC(N)=O)C(=O)N[C@H]1CCC(=O)NCCCC[C@@H](C(=O)N[C@@H](Cc2c[nH]cn2)C(=O)N[C@H](C(=O)N[C@@H](CCC(N)=O)C(=O)N[C@@H](CCCNC(=N)N)C(=O)N[C@H](C(=O)N[C@@H](Cc2c[nH]c3ccccc23)C(=O)NCC(N)=O)C(C)C)C2CCCCC2)NC(=O)[C@H](CC(=O)O)NC(=O)[C@H](CC(C)C)NC(=O)[C@H]([C@@H](C)CC)NC1=O` [compound 427] (HELM PEPTIDE1{[CCCCCCCCC(=O)[*:2]].W.[meA].Q.E.I.L.D.K.H.[O=C([C@@H](N[*:1])C1CCCCC1)[*:2]].Q.R.V.W.G.[am]}$PEPTIDE1,PEPTIDE1,5:R3-9:R3$$$V2.0), the Kd was < 400 nM.

(Values after US12441768B2, “Compositions and methods for treating endometriosis” (EndoMet Biosciences, Inc., priority 2018, dated 2025).)
